Assay results as given in patent US4017607A.
≈ marks a conversion by molar mass, not a printed value. Read-outs that look alike come from different tables or passages of the source.

Assays:
[1] = tested on: Diplococcus pneumoniae Type III; test: Minimum inhibitory concentration, serial dilution method; assay type: cell-based; conditions: Streptococcus pneumoniae, 24 h, read-out: Minimum Inhibitory Concentration
[2] = tested on: Streptococcus faecalis ATCC 8043; test: as above; assay type: cell-based; conditions: Enterococcus faecalis, ATCC8043, 24 h, read-out: Minimum Inhibitory Concentration
[3] = tested on: Staphylococcus aureus 209P; conditions: 7th day, 10 mice per group
[4] = tested on: Bacillus anthracis No. 119; test: microbe, parasite or virus in culture; assay type: cell-based; conditions: NO.119, 24 h, read-out: Minimum Inhibitory Concentration
[5] = tested on: Streptococcus pyogenes D-58; test: Minimum inhibitory concentration, serial dilution method; assay type: cell-based; conditions: Streptococcus pyogenes, D58, 24 h, read-out: Minimum Inhibitory Concentration
[6] = Acute toxicity by oral administration to mice; conditions: mouse, in vivo, free base
[7] = tested on: Bacillus subtilis PCI 219; test: Minimum inhibitory concentration, serial dilution method; assay type: cell-based; conditions: Bacillus subtilis, PCI219, 24 h, read-out: Minimum Inhibitory Concentration
[8] = tested on: Bacillus subtilis ATCC 6633; test: as above; assay type: cell-based; conditions: Bacillus subtilis, ATCC6633, 24 h, read-out: Minimum Inhibitory Concentration
[9] = tested on: Diplococcus pneumoniae Type I; test: as above; assay type: cell-based; conditions: Streptococcus pneumoniae, 24 h, read-out: Minimum Inhibitory Concentration
[10] = tested on: Corynebacterium diphtheriae Type gravis; test: as above; assay type: cell-based; conditions: Corynebacterium diphtheriae, 24 h, read-out: Minimum Inhibitory Concentration
[11] = tested on: Streptococcus hemolyticus Cook; test: as above; assay type: cell-based; conditions: Streptococcus pyogenes, 24 h, read-out: Minimum Inhibitory Concentration
[12] = tested on: Staphylococcus aureus Smith; test: as above; assay type: cell-based; conditions: Staphylococcus aureus, 24 h, read-out: Minimum Inhibitory Concentration
[13] = tested on: Streptococcus hemolyticus D-90; test: as above; assay type: cell-based; conditions: Streptococcus pyogenes, D90, 24 h, read-out: Minimum Inhibitory Concentration
[14] = tested on: Staphylococcus aureus Terajima; test: as above; assay type: cell-based; conditions: Staphylococcus aureus, 24 h, read-out: Minimum Inhibitory Concentration
[15] = tested on: Staphylococcus aureus 209P; test: Minimum inhibitory concentration, serial dilution method, Brain Heart Infusion broth; assay type: cell-based; conditions: Staphylococcus aureus, 209P, 24 h, read-out: Minimum Inhibitory Concentration
Sarcina lutea = test: Minimum inhibitory concentration, serial dilution method; assay type: cell-based; conditions: Micrococcus luteus, 24 h, read-out: Minimum Inhibitory Concentration
[16] = tested on: Corynebacterium diphtheriae Type intermedius; test: as above; assay type: cell-based; conditions: Corynebacterium diphtheriae, 24 h, read-out: Minimum Inhibitory Concentration
[17] = tested on: Staphylococcus albus 1200A; test: as above; assay type: cell-based; conditions: Staphylococcus, 1200A, 24 h, read-out: Minimum Inhibitory Concentration

## CCC(=O)OC1CC(=O)OC(C)CC=CC=CC(O)C(C)CC(CC=O)C(OC2OC(C)C(OC3CC(C)(O)C(OC(=O)CC)C(C)O3)C(N(C)C)C2O)C1OC (stereo not shown) [SF-837 substance, reference compound]
[1]
  MIC: 0.04 µg/mL (≈ 0.0491 µM)
[2]
  MIC: 1.56 µg/mL (≈ 1.92 µM)
[3]; 100 mg/kg oral
  Rate of surviving mice in each group of mice: 0/10
[3]; 200 mg/kg oral
  Rate of surviving mice in each group of mice: 6/10
[4]
  MIC: 0.78 µg/mL (≈ 0.958 µM)
[5]
  MIC: 0.09 µg/mL (≈ 0.111 µM)
[6]
  LD50: 3200 mg/kg
[7]
  MIC: 0.78 µg/mL (≈ 0.958 µM)
[8]
  MIC: 1.56 µg/mL (≈ 1.92 µM)
[9]
  MIC: 0.04 µg/mL (≈ 0.0491 µM)
[10]
  MIC: 0.19 µg/mL (≈ 0.233 µM)
[11]
  MIC: 0.09 µg/mL (≈ 0.111 µM)
[12]
  MIC: 0.19 µg/mL (≈ 0.233 µM)
[13]
  MIC: 1.56 µg/mL (≈ 1.92 µM)
[14]
  MIC: 1.56 µg/mL (≈ 1.92 µM)
[15]
  MIC: 0.78 µg/mL (≈ 0.958 µM)
Sarcina lutea
  MIC: 0.09 µg/mL (≈ 0.111 µM)
[16]
  MIC: 0.19 µg/mL (≈ 0.233 µM)
[17]
  MIC: 0.78 µg/mL (≈ 0.958 µM)
